Our source for the EC50 and GCGR/GLP1R ratio values is US20190175744A1, “INSULIN-INCRETIN CONJUGATES” (Merck Sharp & Dohme Corp., priority 2016, published 2019).

One experiment has as its target human GLP1R (Homo sapiens, UniProt P43220). Briefly: cAMP activity assay, cells expressing human GLP1R. It is filed as cell-based.
A further experiment has as its target T1, human GCGR (Homo sapiens, UniProt P47871).
T1 construct: expressed in transfected cells; grown with Blasticidin and Hygromycin
Briefly: cAMP activity assay, cells expressing human GCGR.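 On all read-outs here: cAMP production read by luminescence after one hour of peptide exposure at room temperature, EC50 from logistic curve fit, native glucagon and GLP-1 as control peptides.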 The experiment is classed as cell-based. Particulars: for GCGR/GLP1R ratio: Table 5, ratio of hGCGR EC50 to hGLP1R EC50.

Another experiment addresses T2, Insulin Receptor (Sus scrofa, UniProt F1SCL0).
T2 construct: expressed in transfected cells
Briefly: Insulin Receptor Binding Assay, minipig. Particulars: Table 7, control molecules, minipig IR.

The next experiment concerns the target T3, minipig IR (Sus scrofa, UniProt F1SCL0).
T3 construct: expressed in transfected cells; host or cells: CHO cells (G418 selection)
Briefly: Insulin Receptor Phosphorylation (pAkt) Assay, CHO cells overexpressing minipig IR. The experiment is classed as cell-based. Particulars: Table 7, control molecules, read-out: Insulin Receptor pAK Assay EC50 Minipig.

Another experiment addresses T4, human IR (Homo sapiens, UniProt P06213).
T4 construct: expressed in transfected cells; host or cells: CHO cells (G418 selection)
Put plainly: Insulin Receptor Phosphorylation (pAkt) Assay, CHO cells overexpressing human IR. It is filed as cell-based. Particulars: Table 7, control molecules, read-out: Insulin Receptor pAK Assay EC50 Human.

Where [1] appears, read: Table 5, incretin peptides, cAMP, read-out: hGLP1R EC50.
Setting [2] is: Table 5, incretin peptides, cAMP, read-out: hGCGR_EC50.

Read-outs that look alike come from different tables or passages of the source. Non-standard residues stand in square brackets, D forms with d. Residues, ends and D or L forms follow the SMILES beside them. Lys(N3) = [N-]=[N+]=NCCCC[C@H](N)C(=O)O; Aib = CC(C)(N)C(=O)O

T1 sequence (P47871 26-477): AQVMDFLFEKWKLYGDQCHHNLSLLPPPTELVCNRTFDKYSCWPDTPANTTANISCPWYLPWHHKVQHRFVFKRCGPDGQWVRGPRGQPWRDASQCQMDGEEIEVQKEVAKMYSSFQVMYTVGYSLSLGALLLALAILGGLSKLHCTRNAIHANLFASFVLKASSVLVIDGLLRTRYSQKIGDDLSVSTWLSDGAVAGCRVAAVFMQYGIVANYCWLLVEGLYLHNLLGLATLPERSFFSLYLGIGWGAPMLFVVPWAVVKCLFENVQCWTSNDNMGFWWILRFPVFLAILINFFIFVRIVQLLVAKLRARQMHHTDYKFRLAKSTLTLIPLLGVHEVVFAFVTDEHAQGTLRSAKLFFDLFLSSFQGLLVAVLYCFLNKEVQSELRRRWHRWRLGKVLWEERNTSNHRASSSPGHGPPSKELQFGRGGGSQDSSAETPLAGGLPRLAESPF
Chain of human GLP1R (P43220 24-463): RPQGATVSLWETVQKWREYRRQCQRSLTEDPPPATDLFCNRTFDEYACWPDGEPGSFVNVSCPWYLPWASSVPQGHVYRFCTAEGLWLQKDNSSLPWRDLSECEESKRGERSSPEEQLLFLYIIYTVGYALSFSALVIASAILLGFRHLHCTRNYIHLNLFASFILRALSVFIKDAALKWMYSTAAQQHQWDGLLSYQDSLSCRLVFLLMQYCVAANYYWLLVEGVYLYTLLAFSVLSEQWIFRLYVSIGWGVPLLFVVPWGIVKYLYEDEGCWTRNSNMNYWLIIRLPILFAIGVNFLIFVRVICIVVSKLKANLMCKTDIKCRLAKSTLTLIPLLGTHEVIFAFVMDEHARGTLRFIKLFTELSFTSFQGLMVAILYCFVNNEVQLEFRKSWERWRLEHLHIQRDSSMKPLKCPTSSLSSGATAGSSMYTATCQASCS
T4 sequence (P06213 28-758 limits assumed): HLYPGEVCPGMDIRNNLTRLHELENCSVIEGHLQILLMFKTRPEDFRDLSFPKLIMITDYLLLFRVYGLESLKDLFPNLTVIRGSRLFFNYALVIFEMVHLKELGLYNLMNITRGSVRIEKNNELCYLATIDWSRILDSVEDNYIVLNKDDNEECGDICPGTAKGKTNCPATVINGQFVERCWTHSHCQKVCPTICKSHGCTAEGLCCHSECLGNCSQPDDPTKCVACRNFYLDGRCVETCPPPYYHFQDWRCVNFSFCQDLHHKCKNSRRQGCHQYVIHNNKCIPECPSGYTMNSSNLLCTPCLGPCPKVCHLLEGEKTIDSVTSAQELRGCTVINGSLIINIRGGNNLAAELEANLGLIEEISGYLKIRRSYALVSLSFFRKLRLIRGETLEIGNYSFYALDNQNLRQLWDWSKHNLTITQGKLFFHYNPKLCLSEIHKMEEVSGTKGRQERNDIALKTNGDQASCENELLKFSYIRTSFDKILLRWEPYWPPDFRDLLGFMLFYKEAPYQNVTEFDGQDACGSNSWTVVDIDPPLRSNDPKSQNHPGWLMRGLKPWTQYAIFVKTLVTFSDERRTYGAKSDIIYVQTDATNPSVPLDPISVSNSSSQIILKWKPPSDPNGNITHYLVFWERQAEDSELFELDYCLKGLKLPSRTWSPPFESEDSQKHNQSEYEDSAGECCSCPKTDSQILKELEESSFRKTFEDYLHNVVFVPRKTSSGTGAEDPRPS
T4 sequence (P06213 763-1382 limits assumed): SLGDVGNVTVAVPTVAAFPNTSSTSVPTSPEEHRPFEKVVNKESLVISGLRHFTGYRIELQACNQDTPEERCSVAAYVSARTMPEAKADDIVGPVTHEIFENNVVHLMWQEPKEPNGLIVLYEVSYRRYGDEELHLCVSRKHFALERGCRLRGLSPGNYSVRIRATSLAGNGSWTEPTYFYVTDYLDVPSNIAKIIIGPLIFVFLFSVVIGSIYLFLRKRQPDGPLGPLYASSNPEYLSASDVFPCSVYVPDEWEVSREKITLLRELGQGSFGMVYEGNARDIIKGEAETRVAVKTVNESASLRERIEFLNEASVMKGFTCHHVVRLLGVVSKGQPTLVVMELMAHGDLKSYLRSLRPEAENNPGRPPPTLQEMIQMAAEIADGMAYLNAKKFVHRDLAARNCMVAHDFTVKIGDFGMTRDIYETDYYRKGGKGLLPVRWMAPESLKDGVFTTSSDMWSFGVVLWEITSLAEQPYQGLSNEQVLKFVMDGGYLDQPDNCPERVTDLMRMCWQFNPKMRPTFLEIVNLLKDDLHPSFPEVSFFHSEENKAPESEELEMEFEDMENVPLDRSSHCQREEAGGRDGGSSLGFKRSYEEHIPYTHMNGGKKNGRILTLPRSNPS
T2 sequence (F1SCL0 28-1382): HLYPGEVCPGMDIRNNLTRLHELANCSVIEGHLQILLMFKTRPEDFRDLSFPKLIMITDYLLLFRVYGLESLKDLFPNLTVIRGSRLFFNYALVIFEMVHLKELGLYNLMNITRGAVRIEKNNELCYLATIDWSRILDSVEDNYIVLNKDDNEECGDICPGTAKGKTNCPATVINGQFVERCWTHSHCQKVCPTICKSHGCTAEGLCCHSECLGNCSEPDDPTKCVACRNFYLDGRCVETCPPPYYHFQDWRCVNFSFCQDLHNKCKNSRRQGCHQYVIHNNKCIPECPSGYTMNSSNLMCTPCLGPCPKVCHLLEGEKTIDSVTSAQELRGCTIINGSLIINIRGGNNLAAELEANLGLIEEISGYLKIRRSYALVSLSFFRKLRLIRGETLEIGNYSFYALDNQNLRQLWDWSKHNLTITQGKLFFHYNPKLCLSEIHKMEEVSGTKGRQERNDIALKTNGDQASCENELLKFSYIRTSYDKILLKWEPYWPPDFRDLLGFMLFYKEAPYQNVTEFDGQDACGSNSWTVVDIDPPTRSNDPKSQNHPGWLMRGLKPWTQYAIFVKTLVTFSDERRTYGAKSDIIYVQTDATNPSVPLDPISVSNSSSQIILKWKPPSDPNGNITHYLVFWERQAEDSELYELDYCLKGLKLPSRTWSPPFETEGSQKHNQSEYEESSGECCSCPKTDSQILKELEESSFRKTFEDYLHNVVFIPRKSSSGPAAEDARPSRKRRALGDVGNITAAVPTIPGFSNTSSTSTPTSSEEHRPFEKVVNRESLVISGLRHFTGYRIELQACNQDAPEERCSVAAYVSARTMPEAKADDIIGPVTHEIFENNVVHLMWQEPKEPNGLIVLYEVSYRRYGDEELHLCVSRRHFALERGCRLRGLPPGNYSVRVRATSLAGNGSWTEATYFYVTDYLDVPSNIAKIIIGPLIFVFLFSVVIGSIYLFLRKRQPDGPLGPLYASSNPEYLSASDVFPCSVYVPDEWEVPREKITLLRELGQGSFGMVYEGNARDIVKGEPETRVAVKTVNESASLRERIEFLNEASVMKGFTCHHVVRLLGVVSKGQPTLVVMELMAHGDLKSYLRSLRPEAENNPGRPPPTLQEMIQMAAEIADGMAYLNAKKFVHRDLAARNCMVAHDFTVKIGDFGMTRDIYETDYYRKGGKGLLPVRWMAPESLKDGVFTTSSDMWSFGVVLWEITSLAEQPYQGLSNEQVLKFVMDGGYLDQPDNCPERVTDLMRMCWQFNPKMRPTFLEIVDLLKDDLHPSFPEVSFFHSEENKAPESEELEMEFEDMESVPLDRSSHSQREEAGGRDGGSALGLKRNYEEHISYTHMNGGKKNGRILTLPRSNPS
T3 sequence (F1SCL0 28-1382): as above
Description for human GCGR: (§1) Activity of the incretin peptides or the conjugates at the Glucagon receptor (GCGR) and GLP-1 receptor (GLP1R) may be measured in a cAMP activity assay as follows.
(§2) Peptides are dissolved in 100% DMSO and serially diluted to generate 10 point titrations. The peptide solutions are then transferred into 384-well assay plates (150 nL/well). Assay ready frozen cells expressing human GLP1R or human GCGR are suspended in growth media consisting of DMEM medium (GIBCO), 10% FBS (GIBCO), 1×NEAA(GIBCO), 1×P/S (GIBCO), 10 μg/mL Blasticidin (GIBCO) and 200 μg/mL Hygromycin (GIBCO). […] The cell suspensions (15 μL) are then added to the assay plates containing the peptide solutions (30,000 cells/well for human GCGR; 10,000 cells/well for human GLP1R). The cells are incubated for one hour at room temperature in the dark.
(§3) Production of cAMP may be determined using HitHunterr cAMPXS kits (DiscoverX) following the manufacturer's protocol. The plates are incubated for overnight at room temperature in the dark. Luminescence may be measured using an EnVision Multilabel plate reader (Perkin Elmer). Native GLP-1 and Glucagon (Bachem) may be used as control peptides. EC50 values may be calculated using uses a 4 parameter logistic fit based on the Levenberg-Marquardt algorithm.
Description for human GLP1R: as §1, §2, §3

Regarding `CCCCCCCCCCCCCCCC(=O)N[C@@H](CCC(=O)N[C@@H](CCC(=O)NCCCC[C@H](NC(=O)[C@H](CC(=O)O)NC(=O)[C@H](CO)NC(=O)[C@@H](NC(=O)[C@H](Cc1ccccc1)NC(=O)[C@@H](NC(=O)CNC(=O)[C@H](CCC(N)=O)NC(=O)[C@@H](CO)NC(=O)[C@@H](N)Cc1c[nH]cn1)[C@@H](C)O)[C@@H](C)O)C(=O)N[C@@H](CO)C(=O)N[C@@H](CCCCN)C(=O)N[C@@H](Cc1ccc(O)cc1)C(=O)N[C@@H](CC(C)C)C(=O)N[C@@H](CC(=O)O)C(=O)N[C@@H](CCC(=O)O)C(=O)N[C@@H](CCCNC(=N)N)C(=O)N[C@@H](C)C(=O)N[C@@H](C)C(=O)N[C@@H](CCC(N)=O)C(=O)N[C@@](C)(CC(=O)O)C(=O)N[C@@H](Cc1ccccc1)C(=O)N[C@H](C(=O)N[C@@H](CCCCN=[N+]=[N-])C(=O)N[C@@H](Cc1c[nH]c2ccccc12)C(=O)N[C@@H](CC(C)C)C(=O)N[C@@H](CCS(C)(=O)=O)C(=O)N[C@@H](CC(=O)O)C(=O)N[C@H](C(N)=O)[C@@H](C)O)C(C)C)C(=O)O)C(=O)O` [PEP34], the EC50 at human GLP1R is 0.05 nM. Further, at human GCGR, the EC50 was 0.05 nM and the GCGR/GLP1R ratio is recorded as 1.0.

Consider `CCCCCCCCCCCCCCCC(=O)N[C@@H](CCC(=O)N[C@@H](CCC(=O)NCCCC[C@H](NC(=O)[C@H](CC(=O)O)NC(=O)[C@H](CO)NC(=O)[C@@H](NC(=O)[C@H](Cc1ccccc1)NC(=O)[C@@H](NC(=O)CNC(=O)[C@H](CCC(N)=O)NC(=O)[C@@H](CO)NC(=O)[C@@H](N)Cc1c[nH]cn1)[C@@H](C)O)[C@@H](C)O)C(=O)N[C@@H](CO)C(=O)N[C@@H](CCCCN)C(=O)N[C@@H](Cc1ccc(O)cc1)C(=O)N[C@@H](CC(C)C)C(=O)N[C@@H](CC(=O)O)C(=O)N[C@@H](CCC(=O)O)C(=O)N[C@@H](CCCNC(=N)N)C(=O)N[C@@H](C)C(=O)N[C@@H](C)C(=O)N[C@@H](CCC(N)=O)C(=O)N[C@@H](CC(=O)O)C(=O)N[C@@](C)(Cc1ccccc1)C(=O)N[C@H](C(=O)N[C@@H](CCCCN=[N+]=[N-])C(=O)N[C@@H](Cc1c[nH]c2ccccc12)C(=O)N[C@@H](CC(C)C)C(=O)N[C@@H](CCS(C)(=O)=O)C(=O)N[C@@H](CC(=O)O)C(=O)N[C@H](C(N)=O)[C@@H](C)O)C(C)C)C(=O)O)C(=O)O` [PEP35], for which the EC50 on human GLP1R (setting [1]) and on human GCGR (setting [2]) was 0.05 nM each time. Besides, the GCGR/GLP1R ratio at human GCGR turned out to be 1.0.

As for `CCCCCCCCCCCCCCCC(=O)N[C@@H](CCC(=O)N[C@@H](CCC(=O)NCCCC[C@H](NC(=O)[C@H](CC(=O)O)NC(=O)[C@H](CO)NC(=O)[C@@H](NC(=O)[C@H](Cc1ccccc1)NC(=O)[C@@H](NC(=O)CNC(=O)[C@H](CCC(N)=O)NC(=O)[C@@H](CO)NC(=O)[C@@H](N)Cc1c[nH]cn1)[C@@H](C)O)[C@@H](C)O)C(=O)N[C@@H](CO)C(=O)N[C@@H](CCCCN)C(=O)N[C@@H](Cc1ccc(O)cc1)C(=O)N[C@@H](CC(C)C)C(=O)N[C@@H](CC(=O)O)C(=O)N[C@@H](CCC(=O)O)C(=O)N[C@@H](CCCNC(=N)N)C(=O)N[C@@H](C)C(=O)N[C@@H](C)C(=O)N[C@@H](CCC(N)=O)C(=O)N[C@@H](CC(=O)O)C(=O)N[C@@H](Cc1ccccc1)C(=O)N[C@H](C(=O)N[C@@H](CCCCN=[N+]=[N-])C(=O)N[C@@H](Cc1c[nH]c2ccccc12)C(=O)N[C@@](C)(CC(C)C)C(=O)N[C@@H](CCS(C)(=O)=O)C(=O)N[C@@H](CC(=O)O)C(=O)N[C@H](C(N)=O)[C@@H](C)O)C(C)C)C(=O)O)C(=O)O` [PEP37], the results for the EC50 on human GLP1R (setting [1]) and at human GCGR (setting [2]) were 0.04 nM and 0.06 nM, respectively. The GCGR/GLP1R ratio on human GCGR was 1.5.

Regarding `CSCC[C@H](NC(=O)[C@H](CC(C)C)NC(=O)[C@H](Cc1c[nH]c2ccccc12)NC(=O)[C@H](CCCCN=[N+]=[N-])NC(=O)[C@@H](NC(=O)[C@H](Cc1ccccc1)NC(=O)[C@H](CC(=O)O)NC(=O)[C@H](CCC(N)=O)NC(=O)[C@H](C)NC(=O)[C@H](C)NC(=O)[C@H](CCCNC(=N)N)NC(=O)C(C)(C)NC(=O)[C@H](CC(=O)O)NC(=O)[C@H](CC(C)C)NC(=O)[C@H](Cc1ccc(O)cc1)NC(=O)[C@H](CCCCN)NC(=O)[C@H](CO)NC(=O)[C@H](CCCCN)NC(=O)[C@H](CC(=O)O)NC(=O)[C@H](CO)NC(=O)[C@@H](NC(=O)[C@H](Cc1ccccc1)NC(=O)[C@@H](NC(=O)CNC(=O)[C@H](CCC(N)=O)NC(=O)C(C)(C)NC(=O)[C@@H](N)Cc1c[nH]cn1)[C@@H](C)O)[C@@H](C)O)C(C)C)C(=O)N[C@@H](CC(N)=O)C(=O)N[C@H](C(=O)N[C@@H](CCCCN)C(=O)N[C@@H](CCC(N)=O)C(=O)O)[C@@H](C)O` [PEP68] (H-H[Aib]QGTFTSDKSKYLD[Aib]RAAQDFV[Lys(N3)]WLMNTKQ-OH; N-terminus assumed), the EC50 stood at 0.07 nM on human GLP1R (setting [1]) and 2.7 nM at human GCGR (setting [2]). Besides, the GCGR/GLP1R ratio on human GCGR stood at 38.6.

`CC(C)C[C@H](NC(=O)[C@H](Cc1ccc(O)cc1)NC(=O)[C@H](CCCCN)NC(=O)[C@H](CO)NC(=O)[C@H](CCCCN)NC(=O)[C@H](CC(=O)O)NC(=O)[C@H](CO)NC(=O)[C@@H](NC(=O)[C@H](Cc1ccccc1)NC(=O)[C@@H](NC(=O)CNC(=O)[C@H](CCC(N)=O)NC(=O)[C@@H](CO)NC(=O)[C@@H](N)Cc1c[nH]cn1)[C@@H](C)O)[C@@H](C)O)C(=O)N[C@@H](CC(=O)O)C(=O)N[C@@H](CCC(=O)O)C(=O)N[C@@H](CCCNC(=N)N)C(=O)N[C@@H](C)C(=O)N[C@@H](C)C(=O)N[C@@H](CCC(N)=O)C(=O)N[C@@H](CC(=O)O)C(=O)N[C@@H](Cc1ccccc1)C(=O)N[C@H](C(=O)N[C@@H](CCCCN=[N+]=[N-])C(=O)N[C@@H](Cc1c[nH]c2ccccc12)C(=O)N[C@@H](CC(C)C)C(=O)N[C@@H](CC(C)C)C(=O)N[C@@H](CC(=O)O)C(=O)N[C@H](C(N)=O)[C@@H](C)O)C(C)C` [PEP69] gave an EC50 at human GLP1R of 0.16 nM. Further, on human GCGR, the EC50 was 0.31 nM and the GCGR/GLP1R ratio came to 1.9.

With `CC(C)C[C@H](NC(=O)[C@H](Cc1ccc(O)cc1)NC(=O)[C@H](CCCCN)NC(=O)[C@H](CO)NC(=O)[C@H](CCCCN)NC(=O)[C@H](CC(=O)O)NC(=O)[C@H](CO)NC(=O)[C@@H](NC(=O)[C@H](Cc1ccccc1)NC(=O)[C@@H](NC(=O)CNC(=O)[C@H](CCC(N)=O)NC(=O)[C@@H](CO)NC(=O)[C@@H](N)Cc1c[nH]cn1)[C@@H](C)O)[C@@H](C)O)C(=O)N[C@@H](CC(=O)O)C(=O)N[C@@H](CCC(=O)O)C(=O)N[C@@H](CCCNC(=N)N)C(=O)N[C@@H](C)C(=O)N[C@@H](C)C(=O)N[C@@H](CCCCN=[N+]=[N-])C(=O)N[C@@H](CC(=O)O)C(=O)N[C@@H](Cc1ccccc1)C(=O)N[C@H](C(=O)N[C@@H](CCC(N)=O)C(=O)N[C@@H](Cc1c[nH]c2ccccc12)C(=O)N[C@@H](CC(C)C)C(=O)N[C@@H](CC(C)C)C(=O)N[C@@H](CC(=O)O)C(=O)N[C@H](C(N)=O)[C@@H](C)O)C(C)C` [PEP71], on human GLP1R (setting [1]), the EC50 was 0.06 nM. On human GCGR, the EC50 worked out at 0.12 nM and the GCGR/GLP1R ratio is 2.0.

As to `CSCC[C@H](NC(=O)[C@H](CC(C)C)NC(=O)[C@H](Cc1c[nH]c2ccccc12)NC(=O)[C@H](CCC(N)=O)NC(=O)[C@@H](NC(=O)[C@H](Cc1ccccc1)NC(=O)[C@H](CC(=O)O)NC(=O)[C@H](CCC(N)=O)NC(=O)[C@H](C)NC(=O)[C@H](C)NC(=O)[C@H](CCCNC(=N)N)NC(=O)C(C)(C)NC(=O)[C@H](CC(=O)O)NC(=O)[C@H](CC(C)C)NC(=O)[C@H](Cc1ccc(O)cc1)NC(=O)[C@H](CCCCN)NC(=O)[C@H](CO)NC(=O)[C@H](CCCCN)NC(=O)[C@H](CC(=O)O)NC(=O)[C@H](CO)NC(=O)[C@@H](NC(=O)[C@H](Cc1ccccc1)NC(=O)[C@@H](NC(=O)CNC(=O)[C@H](CCC(N)=O)NC(=O)C(C)(C)NC(=O)[C@@H](N)Cc1c[nH]cn1)[C@@H](C)O)[C@@H](C)O)C(C)C)C(=O)N[C@@H](CC(N)=O)C(=O)N[C@H](C(=O)N[C@@H](CCCCN)C(=O)N[C@@H](CCC(N)=O)C(=O)N[C@@H](CCCCN=[N+]=[N-])C(N)=O)[C@@H](C)O` [PEP72], the EC50 on human GLP1R (setting [1]) came to 0.04 nM; at human GCGR (setting [2]) it was 3.9 nM. For the same molecule, at human GCGR, the GCGR/GLP1R ratio is given as 97.5.

Regarding `CCCCCCCCCCCCCCCC(=O)N[C@@H](CCC(=O)N[C@@H](CCC(=O)NCCCC[C@H](NC(=O)[C@H](CC(=O)O)NC(=O)[C@H](CO)NC(=O)[C@@H](NC(=O)[C@H](Cc1ccccc1)NC(=O)[C@@H](NC(=O)CNC(=O)[C@H](CCC(=O)O)NC(=O)[C@@H](CO)NC(=O)[C@@H](N)Cc1c[nH]cn1)[C@@H](C)O)[C@@H](C)O)C(=O)N[C@@H](CO)C(=O)N[C@@H](CCCCN)C(=O)N[C@@H](Cc1ccc(O)cc1)C(=O)N[C@@H](CC(C)C)C(=O)N[C@@H](CC(=O)O)C(=O)N[C@@H](CCC(=O)O)C(=O)N[C@@H](CCCNC(=N)N)C(=O)N[C@@H](C)C(=O)N[C@@H](C)C(=O)N[C@@H](CCC(N)=O)C(=O)N[C@@H](CC(=O)O)C(=O)N[C@@H](Cc1ccccc1)C(=O)N[C@H](C(=O)N[C@@H](CCCCN=[N+]=[N-])C(=O)N[C@@H](Cc1c[nH]c2ccccc12)C(=O)N[C@@H](CC(C)C)C(=O)N[C@@H](CC(C)C)C(=O)N[C@@H](CC(=O)O)C(=O)N[C@H](C(N)=O)[C@@H](C)O)C(C)C)C(=O)O)C(=O)O` [PEP75], the EC50 on human GLP1R stood at 0.07 nM. In addition, at human GCGR, the EC50 is greater than 5 nM and the GCGR/GLP1R ratio is greater than 72.

For Insulin degludec [ID], the EC50 at Insulin Receptor came to 8.46 nM.

Regarding Insulin levemir [IL], the EC50 amounted to 0.5 nM at minipig IR and 0.51 nM at human IR.
